# In US12150920B2, “Topical pharmaceutical composition in the form of aqueous gel comprising at least amitriptyline” (AlgoTherapeutix, priority 2020, dated 2024):
# Test: Ex vivo percutaneous absorption of amitriptyline on human skin samples in a Frantz cell
# Format: in vitro ADME
# Settings: topical application of compositions A and B
# Procedure: Comparative ex vivo study of the percutaneous absorption of amitriptyline in a formulation A in the form of an aqueous gel (invention) and a formulation B in the form of cream (comparative). Each of compositions A and B was applied to distinct samples of human skin. For each composition, the experiment was repeated 3 times with 3 skin samples from 3 different donors, giving 9 samples. The skin samples are placed in a Frantz cell and heated to a surface temperature of 32° C.±1° C. Composition A or B is spread homogenously with a spatula onto each skin sample at a rate of 10 mg per cell, corresponding to 5 mg/cm^2 skin. The skin samples are rinsed 16 hours after application. Each skin sample was placed using tweezers onto absorbent paper (dermis side down). The stratum corneum was removed using adhesive strips. After the removal of the stratum corneum the sample was perforated. The epidermis is then separated from the dermis. Each of them is placed in separate vials. Different samples were then extracted.
structure (smiles),measurement,value
CN(C)CCC=C1c2ccccc2CCc2ccccc21 [amitriptyline],Systemic passage of amitriptyline,less than 0.10 % of the administered dose
